In one assay the test system is pS6 MDA-MB-468. The experiment in a line: Cellular Activity Assay (phospho-S6 in MDA-MB-468 cells). In kind it is cell-based. The settings on record: Homo sapiens, 2 hr compound incubation, percent pS6-positive cells. The protocol:
MDA-MB-468 cells were grown in DMEM containing glutamine supplemented with 10% Fetal Bovine Serum (FBS) and 1× antibiotics. Cells were maintained by splitting 1:3 twice a week.
For the assay, cells were plated the evening before at a density of 4000 cells per well in black polyD lysine coated 384 well plates. Cells were incubated overnight (16 to 20 hours) in growth media. Compounds at an appropriate concentration were added to the wells and incubated for 2 hr. Controls included: i) no primary, ii) rabbit isotype, iii) propidium iodide (red) only and iv) anti-phospho-S6 antibody alone (green only). Cells were then fixed in 4% paraformaldehyde for 15-20 minutes at room temperature, then washed 3×80 ul with PBS.
50 ul 10% normal goat serum (NGS) with 0.2% triton X 100 in PBS were added and incubated for 30 to 60 minutes at room temperature. Anti-phospho-S6 antibody was diluted 1:800 2% with NGS in 0.2% TritonX-100 and 30 ul added to appropriate wells. The wells were incubated overnight at 4 degrees Celsius.
Then the wells were washed with 3×80 uL PBS. The secondary green fluorescence labeled antibody (Alexa Fluor® 488 F(ab′)2 fragment goat Anti-rabbit IgG (H+L)), was diluted 1:1500 in 2% NGS with 0.2% TritonX-100, and 30 ul were added to the appropriate wells which were then incubated in the dark at room temperature for 60 minutes. Then they were washed with 4×80 ul PBS. Propidium iodide (1.5 mM stock) was diluted 1:1000 in PBS, and 50 ul were added to the appropriate wells and incubated for 30 minutes at room temperature in the dark. Propidium iodide was not washed out. Plates were read on the Acumen Explorer.
Red and green cell populations were determined using controls. The number of green cells (pS6) and total number of cells (red) were then counted and the percentage of green cells was calculated. Percent positive cell data was plotted on a log scale against concentration of compounds and IC50 values were calculated from dose response curves.

The next assay deals with T1, Akt1 (Homo sapiens, UniProt P31749).
T1 construct: 0.1 ng/ul His-AKT (Full Length), (Invitrogen, Part #P2999, Lot #641228C); His; purchased Invitrogen P2999
The assay is described as follows: AKT/PKB Kinase Assay. Format: biochemical. Particulars: His-AKT (Full Length), 160 uM ATP, 90 min at 25 C. As for the experimental part: In order to measure AKT inhibition in the Caliper Life Sciences LC3000, a TTP Mosquito liquid handling instrument was used to place 125 nl of the appropriate concentration of inhibitor in 100% DMSO (for a dose response curve calculation) into each well of a 384-well plate. To this reaction components were added to a final volume of 12.5 ul: • 0.1 ng/ul His-AKT (Full Length), (Invitrogen, Part #P2999, Lot #641228C) • 160 uM ATP (Fluke, 02055) • 1 mM DTT (Sigma, D0632) • 1 mM MgCl2 (Sigma, M1028) • 1 uM substrate peptide (sequence FITC-AHA-GRPRTSSFAEG-NH2), synthesized by Tufts Peptide Synthesis service. • 100 mM HEPES pH 7.5 (Calbiochem, 391338) • 0.015% Brij-35 (Sigma, B4184)
(§1) The reaction was incubated for 90 min at 25 C, and then stopped by the addition of 70 ul of Stop buffer (100 mM HEPES pH 7.5, 0.015% Brij-35, 10 mM EDTA (Sigma, E7889)).
The plate was read on a Caliper LC 3000 in an Off-Chip mobility shift assay format, using the following parameters for a 12-sipper chip: screening pressure −2.3 psi, upstream voltage −500, and downstream voltage −3000.
These conditions cause unphosphorylated substrate and phosphorylated product peptide to resolve as separate peaks allowing direct measurement of percentage of conversion of substrate to product. The percent conversion was plotted against concentration of inhibitor to produce a sigmoidal dose response curve, from which an IC50 was calculated.

For the next assay, the target named is T2, P70S6K (T412E mutant) (Homo sapiens, UniProt P23443, T412E).
T2 construct: purchased Millipore
The experiment in a line: p70S6K Enzyme Assay. Format: biochemical. The settings on record: 24 μM ATP, 90 min at 25° C., Caliper mobility shift. The protocol: p70S6K inhibitor compounds were diluted and plated in 96 well plates. A reaction mixture including the following components were then added to the compound plate to initiate the enzyme reaction; P70S6K (3 nM, T412E mutant, Millipore) was mixed with 24 μM ATP in an assay buffer containing 100 mM Hepes (pH 7.5), 5 mM MgCl2, 1 mM DTT, 0.015% Brij and 1 μM of the substrate peptide FITC-AHA-AKRRRLSSLRA-OH (derived from the S6 ribosomal protein sequence, FITC=fluorescein isothiocyanate, AHA=6-aminohexanoic acid). The reaction was incubated for 90 min at 25° C., before the addition of 10 mM EDTA to stop the reaction. The proportion of substrate and product (phosphorylated) peptide was analysed on a Caliper Life Sciences Lab Chip 3000, using a pressure of −1.4 psi, and upstream and downstream voltages of −3000 and −700 respectively. Product peaks were resolved before substrate peaks on the resulting chromatograms.
To assess the inhibitory potential of the compounds, IC50-values were determined, as shown in Chemical Synthesis section above.

A further assay addresses T3, Aurora B (Homo sapiens, UniProt Q96GD4).
T3 construct: GST-Aurora B (1-344 amino acids); GST (N); purchased Carna Biosciences 05-102
The assay is described as follows: Aurora B Kinase Assay. Format: biochemical. Particulars: GST-Aurora B (1-344), 10 uM ATP, 90 min at 25 C. As for the experimental part: To measure inhibitor activity of Aurora B inhibitors in the Caliper Life Sciences LC3000, a TTP Mosquito liquid handling instrument was used to place 0.25 ul of the appropriate concentration of inhibitor in 100% DMSO (for a dose response curve calculation) into each well of a 384-well plate. To this reaction components was added to a final volume of 25 ul: • 0.1 ng/ul GST-Aurora B (1-344 amino acids), (Carna Biosciences 05-102. N-terminal GST fusion with His tagged INCEP, accession number Q96GD4). • 10 uM ATP (Fluka, 02055) • 1 mM DTT (Sigma, D0632) • 1 mM MgCl2 (Sigma, M1028) • 1 uM substrate peptide (sequence FITC-LRRASLG-(CONH2), synthesized by Tufts Peptide Synthesis service. • 100 mM HEPES pH 7.5 (Calbiochem, 391338) • 0.015% Brij-35 (Sigma, B4184)
as §1
The plate was read on a Caliper LC 3000 in an Off-Chip mobility shift assay format, using the following parameters for a 12-sipper chip: screening pressure −1.8 psi, upstream voltage −2700, downstream voltage −1000. These conditions caused unphosphorylated substrate and phosphorylated product peptide to resolve as separate peaks allowing direct measurement of percentage of conversion of substrate to product. The percent conversion was plotted against concentration of inhibitor to produce a sigmoidal dose response curve, from which an IC50 was calculated using XLFit for Microsoft Excel.

This note sets out measurements from patent publication US8946247B2, “Quinazoline carboxamide azetidines” (Merck Patent GmbH, priority 2010, dated 2015).

T1 sequence (P31749 whole entry): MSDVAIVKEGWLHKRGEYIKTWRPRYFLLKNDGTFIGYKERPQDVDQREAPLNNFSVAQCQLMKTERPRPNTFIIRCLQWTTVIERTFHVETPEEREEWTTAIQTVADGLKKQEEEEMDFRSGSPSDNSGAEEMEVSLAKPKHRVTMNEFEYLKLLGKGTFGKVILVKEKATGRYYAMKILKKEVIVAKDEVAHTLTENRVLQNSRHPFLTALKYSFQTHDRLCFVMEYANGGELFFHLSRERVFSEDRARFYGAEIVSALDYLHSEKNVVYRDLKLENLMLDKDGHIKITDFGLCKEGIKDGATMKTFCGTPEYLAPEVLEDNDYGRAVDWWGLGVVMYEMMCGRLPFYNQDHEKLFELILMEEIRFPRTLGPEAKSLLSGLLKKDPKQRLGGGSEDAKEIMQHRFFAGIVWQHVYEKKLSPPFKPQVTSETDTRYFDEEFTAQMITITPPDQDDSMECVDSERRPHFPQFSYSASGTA
T2 sequence (P23443 1-421 T412E limits assumed): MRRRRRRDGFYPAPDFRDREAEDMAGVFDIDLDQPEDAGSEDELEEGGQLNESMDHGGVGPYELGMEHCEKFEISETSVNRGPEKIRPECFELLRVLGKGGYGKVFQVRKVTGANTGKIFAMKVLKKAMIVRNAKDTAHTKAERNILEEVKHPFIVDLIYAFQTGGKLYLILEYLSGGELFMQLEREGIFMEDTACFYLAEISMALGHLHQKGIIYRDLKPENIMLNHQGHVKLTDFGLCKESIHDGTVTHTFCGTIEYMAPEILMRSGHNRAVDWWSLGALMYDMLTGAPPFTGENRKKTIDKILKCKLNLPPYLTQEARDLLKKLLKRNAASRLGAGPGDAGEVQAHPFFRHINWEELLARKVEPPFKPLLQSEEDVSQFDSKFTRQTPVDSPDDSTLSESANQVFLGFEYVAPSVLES
T3 sequence (Q96GD4 whole entry, the tested form may be a part): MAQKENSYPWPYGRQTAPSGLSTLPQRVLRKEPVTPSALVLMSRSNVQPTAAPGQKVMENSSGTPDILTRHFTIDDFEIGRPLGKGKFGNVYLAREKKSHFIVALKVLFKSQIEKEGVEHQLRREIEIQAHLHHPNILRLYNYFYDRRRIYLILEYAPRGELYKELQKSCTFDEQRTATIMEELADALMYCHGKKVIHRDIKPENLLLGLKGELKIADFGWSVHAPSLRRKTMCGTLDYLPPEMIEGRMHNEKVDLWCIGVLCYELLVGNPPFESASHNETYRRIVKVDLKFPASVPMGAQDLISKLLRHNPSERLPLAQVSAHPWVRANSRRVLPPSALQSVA
T3 sequence (Q9NQS7 803-918 partner limits assumed): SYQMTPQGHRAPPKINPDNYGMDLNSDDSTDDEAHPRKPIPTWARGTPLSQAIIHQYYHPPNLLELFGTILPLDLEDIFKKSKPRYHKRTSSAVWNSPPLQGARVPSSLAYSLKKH

The IC50 is the midpoint of a concentration-inhibition curve. As for `NC(=O)c1cccc2c(N[C@H](CN3CCC3)c3ccc(F)c(F)c3F)ncnc12` [Example 19, 4-[(S)-2-Azetidin-1-yl-1-(2,3,4-trifluorophenyl)-ethylamino]-quinazoline-8-carboxylic acid amide], the IC50 amounted to 62 nM in the assay with pS6 MDA-MB-468, 23 nM against Akt1, 2.1 nM on P70S6K (T412E mutant) and 360 nM at Aurora B.

`NC(=O)c1cccc2c(N[C@H](CN3CCC3)c3ccc4c(c3)OCO4)ncnc12` [Example 20, 4-[(S)-2-Azetidin-1-yl-1-(1-benzo[1,3]dioxol)-ethylamino]-quinazoline-8-carboxylic acid amide]: the half-maximal inhibitory concentration (IC50) in the assay on pS6 MDA-MB-468 turned out to be 68 nM; on Akt1 it was 120 nM; at P70S6K (T412E mutant), 1.7 nM; against Aurora B, 300 nM.

Turning to `N#Cc1ccc([C@@H](CN2CCC2)Nc2ncnc3c(C(N)=O)cccc23)cc1` [Example 23, 4-[(S)-2-Azetidin-1-yl-1-(4-cyano-phenyl)-ethylamino]-quinazoline-8-carboxylic acid amide], the half-inhibitory concentration (IC50) with pS6 MDA-MB-468 was 29 nM; on Akt1, 11 nM; on P70S6K (T412E mutant) it was 1.3 nM; at Aurora B it was 150 nM.

Consider `NC(=O)c1cccc2c(N[C@H](CN3CCC3)c3ccc(F)cc3Cl)ncnc12` [Example 24, 4-[(S)-2-Azetidin-1-yl-1-(2-chloro-4-fluoro-phenyl)-ethylamino]-quinazoline-8-carboxylic acid amide], for which the IC50 stood at 1030 nM in the assay with pS6 MDA-MB-468, 77 nM at Akt1, 8.7 nM at P70S6K (T412E mutant) and 107 nM at Aurora B.

Take `NC(=O)c1cccc2c(N[C@H](CN3CCC3)c3cc(F)ccc3Cl)ncnc12` [Example 25, 4-[(S)-2-Azetidin-1-yl-1-(2-chloro-5-fluoro-phenyl)-ethylamino]-quinazoline-8-carboxylic acid amide]: the IC50 in the assay on pS6 MDA-MB-468 stood at 486 nM; against Akt1 it was 370 nM; at P70S6K (T412E mutant) it was 3.1 nM; against Aurora B it was 259 nM.

Regarding `NC(=O)c1cccc2c(N[C@H](CN3CCC3)c3cc(F)ccc3F)ncnc12` [Example 26, 4-[(S)-2-Azetidin-1-yl-1-(2,5-di-fluoro-phenyl)-ethylamino]-quinazoline-8-carboxylic acid amide], the IC50 is 359 nM in the assay on pS6 MDA-MB-468, 98 nM at Akt1, 5.3 nM on P70S6K (T412E mutant) and 230 nM against Aurora B.

As to `NC(=O)c1cccc2c(N[C@H](CN3CCC3)c3cccc(C(F)(F)F)c3)ncnc12` [Example 27, 4-[(S)-2-Azetidin-1-yl-1-(3-trifluoromethyl-phenyl)-ethylamino]-quinazoline-8-carboxylic acid amide], the IC50 amounted to 56 nM in the assay with pS6 MDA-MB-468, 5.6 nM on Akt1, 1.4 nM on P70S6K (T412E mutant) and 180 nM against Aurora B.

As to `NC(=O)c1cccc2c(N[C@H](CN3CCC3)c3ccc(OC(F)(F)F)cc3)ncnc12` [Example 30, 4-[(S)-2-Azetidin-1-yl-1-(4-trifluoromethoxy-phenyl)-ethylamino]-quinazoline-8-carboxylic acid amide], the IC50 was 199 nM in the assay on pS6 MDA-MB-468, 187 nM on Akt1, 1.7 nM at P70S6K (T412E mutant) and 370 nM against Aurora B.

Take `NC(=O)c1cccc2c(N[C@H](CN3CCC3)c3ccc(F)c(C(F)(F)F)c3)ncnc12` [Example 31, 4-[(S)-2-Azetidin-1-yl-1-(4-fluoro-3-trifluoromethyl-phenyl)-ethylamino]-quinazoline-8-carboxylic acid amide]: the IC50 with pS6 MDA-MB-468 was 28 nM; against Akt1 it was 7.3 nM; on P70S6K (T412E mutant), 2.4 nM; against Aurora B, 285 nM.

Regarding `NC(=O)c1cccc2c(N[C@H](CN3CCC3)c3cc(F)c(F)c(F)c3)ncnc12` [Example 37, 4-[(S)-2-Azetidin-1-yl-1-(3,4,5-trifluorophenyl)-ethylamino]-quinazoline-8-carboxylic acid amide], the IC50 stood at 130 nM in the assay with pS6 MDA-MB-468, 25 nM on Akt1, 2.8 nM on P70S6K (T412E mutant) and 200 nM against Aurora B.
